The source of these data is US20250236613A1, “SARM1 MODULATORS, PREPARATIONS, AND USES THEREOF” (SIRONAX LTD., priority 2021, published 2025).

Molecules are shown by their SMILES.

SARM1 (50-724), sequence (Q6SZW1 50-724): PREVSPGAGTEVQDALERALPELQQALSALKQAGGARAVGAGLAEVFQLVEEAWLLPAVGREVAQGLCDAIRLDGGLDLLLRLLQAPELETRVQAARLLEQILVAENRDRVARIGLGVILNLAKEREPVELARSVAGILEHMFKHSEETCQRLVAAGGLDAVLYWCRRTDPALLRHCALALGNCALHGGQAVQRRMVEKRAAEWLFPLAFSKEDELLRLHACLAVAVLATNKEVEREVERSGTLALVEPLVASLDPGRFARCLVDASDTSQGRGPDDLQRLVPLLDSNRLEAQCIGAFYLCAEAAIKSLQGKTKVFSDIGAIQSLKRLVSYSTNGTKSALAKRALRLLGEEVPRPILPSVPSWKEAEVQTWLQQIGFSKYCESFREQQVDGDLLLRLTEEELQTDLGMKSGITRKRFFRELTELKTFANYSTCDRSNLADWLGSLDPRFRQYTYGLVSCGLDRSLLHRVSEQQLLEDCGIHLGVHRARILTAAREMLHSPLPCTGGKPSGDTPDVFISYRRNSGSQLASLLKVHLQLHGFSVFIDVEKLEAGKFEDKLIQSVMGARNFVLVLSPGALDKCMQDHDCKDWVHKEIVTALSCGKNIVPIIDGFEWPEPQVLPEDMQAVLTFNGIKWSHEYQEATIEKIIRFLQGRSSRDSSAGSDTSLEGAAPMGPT

The assay has as its target SARM1 (50-724) (Homo sapiens (Human), UniProt Q6SZW1). As to the kind of experiment: SARM1 (50-724) enzymatic assay. Particulars: SARM1 inhibitory activity; 2 nM SARM1 (50-724), 200 μM NMN activator, 100 μM NAD+ substrate, 1 h, LC-MS/MS. It is filed as biochemical. How it is done:
The enzymatic assay was performed in a 384-well plate using Dulbecco's PBS buffer as the reaction buffer. Purified SARM1 (50-724) with a final concentration of 2 nM was pre-incubated with the test compound at 1% DMSO final assay concentration for 15 min at room temperature. The reaction was initiated by adding the mixture of 200 μM NMN as activator and 100 μM NAD^+ as substrate. After 1 h of incubation at room temperature, the reaction was terminated with 10 times volume of 70% acetonitrile, then centrifuged at 3800 rpm for 10 min. The samples were analyzed using LC-MS/MS after diluted to the proper concentration by 10 mM ammonium acetate (pH 9.75).
One may read the IC50 as the point on the concentration scale where inhibition reaches its midpoint. Low values mean inhibition by little substance, high ones a need for much substance. For `Cc1ccncc1-c1cc(O)cc(Cl)c1` [Compound 60, 3-chloro-5-(4-methylpyridin-3-yl)phenol], the IC50 was under 5 µM. The compound `Cc1ccncc1-c1cc(F)c(O)c(Cl)c1` [Compound 61, 2-chloro-6-fluoro-4-(4-methylpyridin-3-yl)phenol] gave an IC50 of 5 to 15 µM.

`Cc1ccncc1-c1cccc(C(F)F)c1` [Compound 62, 3-(3-(difluoromethyl)phenyl)-4-methylpyridine] displayed an IC50 of under 5 µM. The result for `Cc1ccncc1-c1cc(O)cc(C(F)(F)F)c1` [Compound 63, 3-(4-methylpyridin-3-yl)-5-(trifluoromethyl)phenol] reads under 5 µM; that for `Cc1ccncc1-c1ccc2[nH]c(N)nc2c1` [Compound 64, 5-(4-methylpyridin-3-yl)-1H-benzo[d]imidazol-2-amine], under 5 µM; that for `Cc1ccncc1-c1ccc2[nH]nc(N)c2c1` [Compound 65, 5-(4-methylpyridin-3-yl)-1H-indazol-3-amine], over 30 µM. The compound `Cc1cc(Cl)ncc1-c1ccc2[nH]c(=O)oc2c1` [Compound 66, 6-(6-chloro-4-methylpyridin-3-yl)benzo[d]oxazol-2(3H)-one] showed an IC50 of 15 to 30 µM. Take `Cc1cc(C)c(-c2ccc3[nH]c(=O)oc3c2)cn1` [Compound 67, 6-(4,6-dimethylpyridin-3-yl)benzo[d]oxazol-2(3H)-one]: the IC50 lay within 15 to 30 µM. `Cc1ccncc1-c1ccc2[nH]nc(F)c2c1` [Compound 68, 3-fluoro-5-(4-methylpyridin-3-yl)-1H-indazole] came in with an IC50 of under 5 µM. Turning to `Cc1ccncc1-c1ccc(NC(=N)N)cc1` [Compound 69, 1-(4-(4-methylpyridin-3-yl)phenyl)guanidine], the IC50 was in the range of 15 to 30 µM. `Cc1ccncc1-c1ccc2c(c1)N(C)S(=O)(=O)N2` [Compound 70, 1-methyl-6-(4-methylpyridin-3-yl)-1,3-dihydrobenzo[c][1,2,5]thiadiazole 2,2-dioxide] gave an IC50 of 15 to 30 µM.

`Cc1ccncc1-c1ccc2nc(N)ncc2c1` [Compound 71, 6-(4-methylpyridin-3-yl)quinazolin-2-amine] had an IC50 of 15 to 30 µM. `Cc1ccncc1-c1ccc2c(c1)NC(=O)NC2` [Compound 72, 7-(4-methylpyridin-3-yl)-3,4-dihydroquinazolin-2(1H)-one]: the IC50 is 5 to 15 µM. The compound `CC(=O)Nc1nc2cc(-c3cnccc3C)ccc2[nH]1` [Compound 73, N-(5-(4-methylpyridin-3-yl)-1H-benzo[d]imidazol-2-yl)acetamide] registered an IC50 of under 5 µM.

In turn, `Cc1ccncc1-c1ccc2[nH]ncc2c1F` [Compound 74, 4-fluoro-5-(4-methylpyridin-3-yl)-1H-indazole] came in with an IC50 of 15 to 30 µM.

Compound `Cc1ccncc1-c1ccc2[nH]c(=S)oc2c1` [Compound 75, 6-(4-methylpyridin-3-yl)benzo[d]oxazole-2(3H)-thione] came in with an IC50 of under 5 µM. `Cc1ccncc1-c1ccc2c(c1)C(=O)C(=O)N2` [Compound 76, 5-(4-methylpyridin-3-yl)indoline-2,3-dione] came in with an IC50 of under 5 µM.

In turn, `Nc1cncc(-c2ccc3[nH]c(=O)oc3c2)c1` [Compound 77, 6-(5-aminopyridin-3-yl)benzo[d]oxazol-2(3H)-one] returned an IC50 of 5 to 15 µM. With `Cc1ncncc1-c1ccc2[nH]c(=O)oc2c1` [Compound 78, 6-(4-methylpyrimidin-5-yl)benzo[d]oxazol-2(3H)-one], the IC50 is over 30 µM. The compound `Cc1ccncc1-c1ccc2c(c1)CNC(=N)N2` [Compound 79, 6-(4-methylpyridin-3-yl)-3,4-dihydroquinazolin-2(1H)-imine] returned an IC50 of under 5 µM. For the compound `Cc1ccncc1-c1ccc2c(c1)COCC(=O)N2` [Compound 80, 7-(4-methylpyridin-3-yl)-1,5-dihydrobenzo[e][1,4]oxazepin-2(3H)-one], the IC50 is under 5 µM. The result for `Cc1ccncc1-c1ccc2c(c1)C(F)(F)C(=O)N2` [Compound 81, 3,3-difluoro-5-(4-methylpyridin-3-yl)indolin-2-one] reads under 5 µM.
